# Source: article PMC12307812 (Nature Communications, 2025)
# Target: T1, Recombinant Human TMPRSS2 (Homo sapiens, UniProt O15393)
# T1 construct: human TMPRSS2 residues 106492, N-terminal 6x His-tag; 6x His-tag (N); purchased Cusabio CSB-YP023924HU; host or cells: yeast
# Assay: TMPRSS2 biochemical assay (Boc-Gln-Ala-Arg-AMC fluorogenic substrate)
# Settings: first round of screening on the NCATS in-house library (docking score selection); read-out: IC50
# Experimental: Inhibitors of TMPRSS2 were tested using a high throughput activity assay. […] TMPRSS2 (5 µl, 0.018 mg/ml) in assay buffer (50 mM Tris pH 8, 150 mM NaCl, 0.01% Tween20) was dispensed to that, using a BioRAPTR (Beckman Coulter), for a total assay volume of 5 µl.
# After incubation at room temperature for 1 h, fluorescence was measured. […] Raw plate reads for each titration point were normalized relative to a positive control containing no enzyme (0% activity, full inhibition) and a negative control containing DMSO-only wells (100% activity, basal activity). Data normalization was performed using GraphPad Prism (GraphPad Software, San Diego, CA).
# We employed the curve fitting algorithm available in the SciPy package (version 1.10.1)[61] to derive the Hill slope and the IC50 value, along with their corresponding error estimates.
# T1 sequence (O15393 106-492 limits assumed): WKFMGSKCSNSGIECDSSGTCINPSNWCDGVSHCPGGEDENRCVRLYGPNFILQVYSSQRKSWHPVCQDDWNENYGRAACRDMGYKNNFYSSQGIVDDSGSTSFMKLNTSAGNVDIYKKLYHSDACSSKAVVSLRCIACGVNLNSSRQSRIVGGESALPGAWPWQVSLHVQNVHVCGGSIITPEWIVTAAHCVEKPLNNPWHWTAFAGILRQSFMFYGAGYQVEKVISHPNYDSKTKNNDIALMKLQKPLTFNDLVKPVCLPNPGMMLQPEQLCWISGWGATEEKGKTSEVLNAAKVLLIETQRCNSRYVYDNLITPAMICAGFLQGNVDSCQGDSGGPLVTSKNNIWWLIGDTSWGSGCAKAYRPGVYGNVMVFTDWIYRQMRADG
row,SMILES,IC50 [µM]
1,CCCCC(=O)Oc1ccc2oc(-c3ccc(OC)cc3)cc(=O)c2c1 [NCGC00100604-01],12.6
2,COC(=O)c1ccc(OC)c(Cn2c(=O)n(-c3cccc(Cl)c3)c(=O)c3c2c2cc(C)ccc2n3C)c1 [NCGC00104930-01],31.6
3,Cc1cc(C(=O)Nc2cc(Oc3ccc4nc(NC(=O)C5CC5)cn4n3)ccc2C)n(C)n1 [NCGC00485933-01],31.6
4,OCCn1cc(-c2cnc3nnn(Cc4ccc5ncccc5c4)c3n2)cn1 [NCGC00263161-11],19.9
5,COC(=O)CNC(=O)c1nc(-c2cccc(C(F)(F)F)c2)c2ccccn12 [NCGC00476320-01],15.8
6,CCOC(=O)c1cccc(Nc2ccc3cc(S(=O)(=O)N4CCCCC4)ccc3n2)c1 [NCGC00127764-01],14.1
7,COc1ccc(-c2cc(C(=O)Oc3ccc(C)c(C)c3)c3ccccc3n2)cc1 [NCGC00099485-01],15.8
8,CC(=O)Nc1cccc(-c2nc(-c3c(C)noc3C)cc3c2cc(-c2ccccc2)n3C)c1 [NCGC00417192-01],8.91
9,COC(=O)c1ccc(Nc2nc(-c3ccc(C)cc3)nc3ccccc23)cc1 [NCGC00099825-01],17.8
10,O=C(NCc1ccc(-c2cnc3c(Oc4ccccc4)nccn23)cc1)c1ccn[nH]1 [NCGC00413991-01],35.5
11,CCOc1ccc(-n2nc(CO)c(C(=O)NCC(c3ccccc3)c3ccccc3)n2)cc1 [NCGC00117127-01],22.4
12,Fc1cc(F)cc(Cc2nc3nccc(-c4cc5ccccc5o4)n3n2)c1 [NCGC00424555-01],12.6
13,Cn1ccc2c(C(=O)NCCc3cnc[nH]3)nc(-c3cnn(Cc4ccccc4)c3)cc21 [NCGC00411713-01],35.5
14,Nc1n[nH]c(CNc2cc(-c3ccc(F)cc3)nc3ccnn23)n1 [NCGC00434595-01],19.9
15,CC(=O)Nc1cccc(-c2cc3c(ccn3C)c(C(=O)NCc3c(C)cc(C)[nH]c3=O)n2)c1 [NCGC00411690-01],17.8
16,CCOC(=O)c1c(-c2ccc(OC)cc2)oc2ccc(OCc3ccc(F)cc3F)cc12 [NCGC00099773-01],31.6
17,O=C(OCC(O)CO)c1ccccc1Nc1ccnc2c(C(F)(F)F)cccc12 (stereo not drawn) [NCGC00249912-01],31.6
18,COC(=O)c1ccccc1NC(=O)CCCS(=O)(=O)c1nc(-c2ccccc2OC)cc(C(F)(F)F)n1 [NCGC00103995-01],14.1
19,Cn1nnc(-c2ccc(-c3ccc(N4C[C@H](COP(=O)(O)O)OC4=O)cc3F)cn2)n1 [NCGC00482851-02],35.5
20,COC(=O)Cc1c(C)c2ccc3c(c2oc1=O)CN(Cc1ccc(C)cc1)CO3 [NCGC00116348-01],15.8
21,CC(C)c1ccc2oc(-c3ccc(NC(=O)c4cc5ccccc5o4)cc3)nc2c1 [NCGC00099237-01],22.4
22,Cc1cccc(-n2ncc3c(Nc4ccc(Oc5ccc(Cl)cc5)cc4)ncnc32)c1 [NCGC00138820-01],12.6
23,Cc1cc(C)c(CNC(=O)c2nc(-c3cccc(C(F)(F)F)c3)cc3[nH]ccc23)c(=O)[nH]1 [NCGC00411596-01],8.91

# Same assay, conditions: hits from NCATS in-house library screening; read-out: IC50, TMPRSS2 biochemical assay
row,SMILES,IC50 [µM]
1,CCOC(=O)CCN(C(=O)c1ccc2c(c1)nc(CNc1ccc(C(=N)N)cc1)n2C)c1ccccn1 [dabigatran ethyl ester],2.24

# Same assay, conditions: second round of screening on the NCATS in-house library (dynamic h-score selection); read-out: IC50
row,SMILES,IC50 [µM]
1,Cc1ccc(C(=O)Oc2ccc(C(O)CNC(C)(C)C)cc2OC(=O)c2ccc(C)cc2)cc1 (stereo not drawn) [NCGC00253593-01],14.1
2,Cc1cc(-c2cc3c(nc2-c2ccccc2)nc(C(=O)NCCN(C)C)n3C)ccn1 [NCGC00417822-01],19.9
3,CC(=O)Nc1ccc(CN2C(=O)OC3(CCN(C(=O)c4cccc(C#N)c4)CC3)C2(C)c2ccccc2)cc1 (stereo not drawn) [NCGC00415676-01],31.6
4,Nc1nn(-c2ccccc2)nc1C(=O)OCc1ccccc1Br [NCGC00102940-01],17.8
5,Nc1nn(-c2ccccc2)nc1C(=O)OCc1ccccc1 [NCGC00102837-01],17.8
6,COc1cccc(COC(=O)c2ccc(-c3nnn(Cc4ccccc4)n3)cc2)c1 [NCGC00102929-01],17.8
7,O=C(OCC1CCCO1)c1ccc2c(c1)N(Cc1ccc(F)cc1)C(=O)c1ccccc1S2(=O)=O (stereo not drawn) [NCGC00127812-01],15.8

# Test system: TMPRSS2
# Assay: not given
# Parameters: method as in earlier work
# Settings: top 50 compounds by AUC, Figure 2 source data; cited from earlier work
row,SMILES,max response (%)
1,CC(N)C12CC3CC(CC(C3)C1)C2.Cl (stereo not drawn) [NCGC00159491-04],-13.9313
2,Nc1nc2ccc(OC(F)(F)F)cc2s1 [NCGC00015882-15],-16.2214
3,COc1cc(C)c(Cc2cnc(N)nc2N)cc1OC [NCGC00167523-03],-8.206
4,CC[C@H](C)[C@H]1O[C@]2(C=C[C@@H]1C)C[C@@H]1C[C@@H](C/C=C(\C)[C@@H](O[C@H]3C[C@H](OC)[C@@H](O[C@H]4C[C@H](OC)[C@@H](O)[C@H](C)O4)[C@H](C)O3)[C@@H](C)/C=C/C=C3\CO[C@@H]4[C@H](O)C(C)=C[C@@H](C(=O)O1)[C@]34O)O2 [NCGC00168290-05],-26.1435
5,CCOC(=O)Cn1cccc1-c1nc(-c2ccc(OC)cc2)c(-c2ccc(OC)cc2)s1 [NCGC00182996-01],-15.3817
6,CC1(C)O[C@@H]2C[C@H]3[C@@H]4CCC5=CC(=O)C=C[C@]5(C)[C@@]4(F)[C@@H](O)C[C@]3(C)[C@]2(C(=O)CO)O1 [NCGC00023193-06],-22.5573
7,CN(C/C=C/c1ccccc1)Cc1cccc2ccccc12.Cl [NCGC00179332-03],-15.3589
8,CN[C@H]1C[C@@H](N)[C@H](O)[C@@H](O[C@@H]2O[C@H](CO)[C@H](O)[C@@H]3OC4(O[C@H]23)O[C@H]([C@@H](N)CO)[C@H](O)[C@H](O)[C@H]4O)[C@@H]1O (stereo partly drawn) [NCGC00188433-02],-14.1688
9,CN(C(=O)C(Cl)Cl)c1ccc(OC(=O)c2ccco2)cc1 [NCGC00016637-10],-56.9847
10,Cl.NCCNC(=O)c1ccc(Cl)cn1 [NCGC00167737-02],-9.8855
11,Cl.NCC1CCC(C(=O)Oc2ccc(CCC(=O)O)cc2)CC1 (stereo not drawn) [NCGC00164584-03],-89.9618
12,CN(C)C(=O)COC(=O)Cc1ccc(OC(=O)c2ccc(N=C(N)N)cc2)cc1.CS(=O)(=O)O [NCGC00167526-02],-95.3053
13,CC(C)N(CCC(C(N)=O)(c1ccccc1)c1ccccn1)C(C)C (stereo not drawn) [NCGC00015358-18],-7.9771
14,CC=CC1C(C(=O)OCc2c(F)c(F)c(COC)c(F)c2F)C1(C)C (stereo not drawn) [NCGC00319021-01],-16.0283
15,C=CCN1CC[C@]23CCCC[C@H]2[C@H]1Cc1ccc(O)cc13 [NCGC00162247-06],-23.7786
16,CC12CCC(CC1=O)C2(C)C (stereo not drawn) [NCGC00090730-03],-1.87
17,Cc1cc(C)cc(OCC2CNC(=O)O2)c1 (stereo not drawn) [NCGC00095116-05],-5.458
18,CCOC(=O)COc1ccc2c(=O)cc(-c3ccccc3)oc2c1 [NCGC00182622-03],-10.6731
19,COc1ccc(CN2CCNCC2)c(OC)c1OC [NCGC00016697-04],-13.9313

row,SMILES,max response (%)
1,CCCCc1cc2ccccc2c(OCCN(C)C)n1 [NCGC00016618-04],-11.3359
2,C=CC[C@@H]1/C=C(\C)C[C@H](C)C[C@H](OC)[C@H]2O[C@@](O)(C(=O)C(=O)N3CCCC[C@H]3C(=O)O[C@H](/C(C)=C/[C@@H]3CC[C@@H](O)[C@H](OC)C3)[C@H](C)[C@@H](O)CC1=O)[C@H](C)C[C@@H]2OC [NCGC00163470-27],-28.9699
3,N=C(N)c1ccc(/C=C/c2ccc(C(=N)N)cc2O)cc1 [NCGC00166289-02],-82.5214
4,N=C(N)c1ccc2cc(OC(=O)c3ccc(N=C(N)N)cc3)ccc2c1 [NCGC00160398-05],-96.6794
5,O=C(O)CCNC(=O)c1ccc(N=Nc2ccc(O)c(C(=O)O)c2)cc1 [NCGC00164634-02],-22.1756
6,CCOC(=O)c1ccc(OC(=O)CCCCCN=C(N)N)cc1.CS(=O)(=O)O [NCGC00025297-04],-83.626
7,Clc1cccc(C(c2ccc3nc[nH]c3c2)n2ccnc2)c1 (stereo not drawn) [NCGC00181034-03],-10.9542
8,COc1cc(N)c(Cl)cc1C(=O)NC1CCN(Cc2ccccc2)CC1 [NCGC00016951-05],-0.1908
9,N=C(N)c1ccc(OCCCOc2ccc(C(=N)N)cc2Br)c(Br)c1 [NCGC00189076-01],-77.315
10,CC(CCc1ccccc1)NC(C)C(O)c1ccc(O)cc1 (stereo not drawn) [NCGC00015716-09],-20.1145
11,Cc1ccc(S(=O)(=O)NC(=O)NN2CC3CCCC3C2)cc1 (stereo not drawn) [NCGC00095107-09],-9.733
12,CC(C(=O)O)c1ccc(C(=O)c2cccs2)cc1 (stereo not drawn) [NCGC00094916-06],-15.5344
13,S=P(N1CC1)(N1CC1)N1CC1 [NCGC00095042-09],-29.4275
14,CCC(=O)c1ccc2c(c1)N(CCCN(C)C)c1ccccc1S2.Cl [NCGC00015838-06],-16.7557
15,C=C1CC[C@H](O)C/C1=C\C=C1/CCC[C@]2(C)[C@@H]([C@H](C)/C=C/[C@H](C)C(C)C)CC[C@@H]12 [NCGC00166307-05],-20.0382
16,CC(=O)Oc1cccc(O)c1 [NCGC00095054-05],-8.588
17,O=[N+]([O-])C(Br)(CO)CO [NCGC00164057-03],-6.336
18,CC(=O)Oc1cc(C(C)C)c(OCCN(C)C)cc1C [NCGC00015678-10],-9.504
19,Nc1ncnc2nc[nH]c12 [NCGC00094856-05],-3.511
